Experimental data published in publication PMC10526139, “Molecular and Pharmacokinetic Aspects of the Acetylcholinesterase-Inhibitory Potential of the Oleanane-Type Triterpenes and Their Glycosides” (Biomolecules, 2023).

Assays:
[1] = biological target: T1, AChE from electric eel type VI-S (Electrophorus electricus, UniProt O42275); experiment: TLC-bioautography assay towards AChE inhibition; format: biochemical
T1 construct: purchased Sigma Aldrich
Protocol: Six standards of oleanane-type triterpenes: arjunic acid, arjunolic acid, arjungenin, arjunglucoside I, sericic acid and arjunetin—purchased from Sigma Aldrich (St. Louis, MO, USA)—were prepared at the concentration of 1 mg/mL in double-distilled water: methanol (50:50 v/v) and they were applied separately at the surface of the aluminum normal phase 10 cm × 10 cm TLC plate (Silica gel 60 F254, Merck, Darmstadt, Germany) with an autosampler (Camag, Muttenz, Switzerland) as the 6 mm zones, distant from one another by 1.5 cm horizontally and 2 cm vertically. Every reference solution was applied as 4, 6, 8 and 10 µL volume bands on three TLC plates.
The TLC plates were later subjected to the enzymatic assay according to the previously published protocol, with some modifications.
As the TLC plate was not developed in a TLC solvent system but was used directly in the TLC bioautographic assay, the authors modified the previously published protocol and sprayed the TLC with the substrate (2-naphtyl acetate; Sigma Aldrich, St. Louis, […], USA) dissolved in distilled water at the quantity of 30 mg/20 mL. The TLC was dried in cold air and later the solution of the AChE enzyme (AChE from electric eel type VI-S, Sigma Aldrich, St. Louis, […], USA) dissolved in the aqueous solution of Tris-HCl buffer (pH 7.8; Sigma Aldrich, St. Louis, […], USA) with […] (500 mg/100 mL, Sigma Aldrich, St. Louis, […], USA) at the quantity of 3 U/mL was sprayed on the TLC plate and incubated at the temperature of 37 °C for the following 20 min in a humid incubator. In the next step, the Fast Blue B (Sigma Aldrich, St. Louis, […], USA) solution (0.615 mg/mL) was sprayed on the plate and visualized active zones as white spots against the violet background. The area of the discolored zones corresponded to the inhibitory strength of the respective zones.
Finally, the TLC plate was dried in the air and analyzed by a Camag TLC visualizer (Camag, Muttenz, Switzerland) under visible light. The peak areas of the discolored zones were automatically calculated by the WinCats program (version 1.4, Camag, Muttenz, Switzerland) and their size was compared to calculate the IC50 values that corresponded to the concentration of the standard giving the half maximum inhibition of the AChE enzyme.

[2] = tested on: AChE; conditions: AChE inhibition; cited from earlier work

T1 sequence (O42275 24-633): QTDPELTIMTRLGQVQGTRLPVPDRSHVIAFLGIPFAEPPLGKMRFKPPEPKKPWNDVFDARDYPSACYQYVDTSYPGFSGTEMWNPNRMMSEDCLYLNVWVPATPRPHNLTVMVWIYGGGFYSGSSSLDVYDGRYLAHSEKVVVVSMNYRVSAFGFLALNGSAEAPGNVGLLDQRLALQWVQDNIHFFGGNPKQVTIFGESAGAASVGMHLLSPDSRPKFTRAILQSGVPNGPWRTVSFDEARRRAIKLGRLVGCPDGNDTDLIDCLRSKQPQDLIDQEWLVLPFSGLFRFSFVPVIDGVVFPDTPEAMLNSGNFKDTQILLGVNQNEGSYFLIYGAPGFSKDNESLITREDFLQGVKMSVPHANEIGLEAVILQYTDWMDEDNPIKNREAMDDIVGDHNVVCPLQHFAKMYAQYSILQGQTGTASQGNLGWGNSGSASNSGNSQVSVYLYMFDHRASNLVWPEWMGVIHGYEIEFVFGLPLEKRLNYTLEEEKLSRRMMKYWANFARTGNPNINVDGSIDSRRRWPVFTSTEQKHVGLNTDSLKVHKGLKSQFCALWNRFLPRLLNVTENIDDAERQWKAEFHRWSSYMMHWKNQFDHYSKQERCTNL

SMILES | IC50 [1] | IC50 [2]
CC1(C)CC[C@]2(C(=O)O[C@@H]3O[C@H](CO)[C@@H](O)[C@H](O)[C@H]3O)CC[C@]3(C)C(=CC[C@@H]4[C@@]5(C)C[C@@H](O)[C@H](O)C(C)(C)[C@@H]5CC[C@]43C)[C@@H]2[C@@H]1O [Arjunetin] | 18.8 µM | –
CC1(C)CC[C@]2(C(=O)O[C@@H]3O[C@H](CO)[C@@H](O)[C@H](O)[C@H]3O)CC[C@]3(C)C(=CC[C@@H]4[C@@]5(C)C[C@@H](O)[C@H](O)[C@@](C)(CO)[C@@H]5CC[C@]43C)[C@@H]2[C@@H]1O [Arjunglucoside I] | 13.2 µM | –
CC1(C)CC[C@]2(C(=O)O)CC[C@]3(C)C(=CC[C@@H]4[C@@]5(C)C[C@@H](O)[C@H](O)[C@@](C)(CO)[C@@H]5CC[C@]43C)[C@@H]2[C@@H]1O [Arjungenin] | 19.5 µM | –
CC1(C)CC[C@]2(C(=O)O)CC[C@]3(C)C(=CC[C@@H]4[C@@]5(C)C[C@@H](O)[C@H](O)C(C)(C)[C@@H]5CC[C@]43C)[C@@H]2[C@@H]1O [Arjunic acid] | 20.7 µM | –
CC1(C)CC[C@]2(C(=O)O)CC[C@]3(C)C(=CC[C@@H]4[C@@]5(C)C[C@@H](O)[C@H](O)[C@](C)(CO)[C@@H]5CC[C@]43C)[C@@H]2[C@@H]1O [Sericic acid] | 16.4 µM | –
CC1(C)CC[C@]2(C(=O)O)CC[C@]3(C)C(=CC[C@@H]4[C@@]5(C)C[C@@H](O)[C@H](O)[C@@](C)(CO)[C@@H]5CC[C@]43C)[C@@H]2C1 [Arjunolic acid] | 16.2 µM | –
C[C@H]1[C@H](C)CC[C@]2(C(=O)O)CC[C@]3(C)C(=CC[C@@H]4[C@@]5(C)C[C@@H](O)[C@H](O)[C@@](C)(CO)[C@@H]5CC[C@]43C)[C@H]12 [asiatic acid] | – | 15.05 ± 0.05 µM
